Test results reported in US9586963B2 (GENFIT, priority 2011, dated 2017).

How the values were obtained:
[1] = target: T1, Rev-Erb alpha (Homo sapiens, UniProt P20393); experiment: TR-FRET (HTRF) assay of Rev-Erb alpha LBD with NCoR peptide ID1; format: biochemical; conditions: cell-free, Rev-Erb alpha LBD His 20 nM, NCoR ID1 30 nM
T1 sequence (P20393 284-614 limits assumed): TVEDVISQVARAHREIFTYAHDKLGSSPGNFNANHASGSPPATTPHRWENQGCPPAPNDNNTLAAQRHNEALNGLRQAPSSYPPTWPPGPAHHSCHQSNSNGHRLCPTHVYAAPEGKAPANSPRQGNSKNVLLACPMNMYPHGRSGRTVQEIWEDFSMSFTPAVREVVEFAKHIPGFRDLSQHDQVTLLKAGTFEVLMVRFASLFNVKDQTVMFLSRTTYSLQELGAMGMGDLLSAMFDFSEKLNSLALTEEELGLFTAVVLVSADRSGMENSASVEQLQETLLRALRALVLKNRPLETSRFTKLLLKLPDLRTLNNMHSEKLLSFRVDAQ
Method: Recombinant histidine-tagged Rev-Erb alpha ligand binding domain (LBD; SEQ ID NO: 1) and NCoR peptide ID1 (SEQ ID NO: 2) were tagged with fluorophores. Histidine-tagged Rev-Erb alpha LBD protein was set up in a one to one ratio of 20 nM of His D2 (Cis Bio International 61HSDLB). The NCoR peptide (ID1) was prepared in-house. We used a concentration of 30 nM NCoR and 10 nM Terbium-labeled streptavidin (Cis Bio International 610SATLB).
The buffer for this assay comprised PBS pH 7.2, NaH2P04 at 4 g/L, Na2HP04 at 27 g/L and NaCl at 9 g/l in deionized water. Before using the buffer in the assay, a mixture comprising 1 mM of DTT, 2 mM of CHAPS, 1 mM of EDTA and 0.1% BSA fatty acid free was added to the appropriate amount of buffer. The protein mixture comprising recombinant Rev-Erb alpha LBD His (20 nM), the NCoR ID1 (30 nM) and their respective fluorophores were added to each well of a 384-well plate in a volume 18 μl. The compounds to analyze were diluted in PBS 10% DMSO and was added in a volume of 2 μL in a well. The final mixture volume was 20 μL and the mixture was allowed equilibrate for 2 hours at room temperature. Fluorescence intensity was then counted on the TECAN Genios Pro as a ratio of the fluorescence measured at 665 nm and that measured at 620 nm obtained in the absence of the compound (buffer only) or with the compound. Four experiments were carried out for each compound.
Each compound has been tested at 6 different concentrations to depict a dose-effect enabling the measure of biochemical parameters such as EC50 and TOP activation (%).
The Homogenous Time Resolved Fluorescence (HTRF) assay allows studying the ability of compounds according to the invention to activate Rev-Erb alpha and thus modulate the interaction with its corepressor. The molecular interactions between these bio-molecules are assessed in a cell-free assay by coupling each partner with a fluorescent label and detecting the level of energy transfer. This energy transfer occurs when the distance between the donor (SA Terbium complex) and the acceptor (D2) is small enough.
The ability of compounds according to the invention of activating Rev-Erb alpha was assessed in the described acellular assay. EC50 and TOP activation were measured.

[2] = target: T1, Rev-Erb alpha; experiment: M2H (mammalian two-hybrid) cellular activation assay of Rev-Erb alpha; format: cell-based; conditions: M2H assay, HEK293 cells, Gal4-Rev-Erb alpha / VP16-NCoR, luciferase reporter
How it was run: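 Six-point dose-response, 18 h, 37 °C, serum-free, in HEK293 cells carrying a Gal4-RE luciferase reporter with Gal4-Rev-Erb alpha or beta plus VP16-NCoR (corepressor interaction readout). EC50 and TOP activation (%) derived from luminescence across four experiments.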

[3] = target: T2, Rev-Erb beta (Homo sapiens, UniProt Q14995); experiment: M2H (mammalian two-hybrid) cellular activation assay of Rev-Erb beta; format: cell-based; conditions: HEK293 cells, Gal4-Rev-Erb beta / VP16-NCoR, luciferase reporter
T2 sequence (Q14995 369-579 limits assumed): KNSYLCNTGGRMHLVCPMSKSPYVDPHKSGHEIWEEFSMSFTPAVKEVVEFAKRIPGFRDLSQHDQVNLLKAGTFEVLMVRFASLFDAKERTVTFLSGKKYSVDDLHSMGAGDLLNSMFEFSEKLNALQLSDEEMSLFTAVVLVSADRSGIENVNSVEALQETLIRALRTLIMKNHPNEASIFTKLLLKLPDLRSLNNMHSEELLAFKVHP
Method: In this system, Rev-Erb alpha or Rev-Erb beta is expressed as a fusion to the Gal4 DNA-binding domain and the cofactor NCoR is expressed as a fusion to the activation domain of the Herpes Simplex Virus tegument protein VP16. These fusion proteins were included in plasmids at a concentration of 1 μg/μL. The pBS-SK+ vector was added to the preparation to adjust the DNA quantity to a fixed value for each condition.
The transfection mix (Jet-PEI protocol, Polyplus transfection) comprised: • 3 mL of Jet PEI Mix (180 μL Jet-Pei and NaCl at 150 mM) and • 3 mL of the DNA Mix or of the DNA Mix control (wherein the Gal4-Rev-Erb alpha plasmid was replaced by a pGal4phi plasmid).
DNA Mix comprised 1.2 mL of DNA and 1.8 mL of NaCl at 150 mM with, in a T225 flask: • 90 ng of Gal4-Rev-Erb alpha, or 90 ng of Gal4-Rev-Erb beta, • 4500 ng of VP16-NCoR, • 27000 ng of Gal4-RE and • 13410 ng of pBS-SK+. Cells
HEK293 cells were cultured in DMEM (Invitrogen 41965) comprising 10% FBS, P/S, 1% glutamine, 1% pyruvate (Invitrogen 11360) and 1% amino acids (Invitrogen 11140). Cells were then batch co-transfected with plasmid vectors (described in the table above) using as Jet-PEI as reagent (Polyplus) following the protocol specified below.
The 6 mL-transfection mix was transferred in a T225 flask. HEK293 cells were then added at a concentration of 12 Millions of cells for 54 mL of medium (DMEM comprising 10% FBS and 1% P/S). Cells incubated over-night at 37° C. and under 5% CO2.
This cell-based assay is performed using 384-well Greiner white plates (Reference 781080). After the incubation, cells were rinsed with PBS, trypsinized, centrifuged and resuspended in free-serum DMEM without phenol red (Invitrogen 31053). Cells were counted and adjusted to 0.5 Million per mL and plated at a concentration of 10,000 cells in 20 μL per well. They were incubated a minimum of 4 hours at 37° C. under 5% CO2. Cells were treated with 20 μL of the compound to analyze (concentration of 2× diluted in DMEM without FBS containing a maximum of 1% DMSO) and incubated over-night (18 hours, 37° C. and 5% CO2). Each compound has been tested at 6 different concentrations to depict a dose-effect allowing the measure of biochemical parameters such as EC50 and TOP activation (%).
Cells were incubated 30 minutes with 40 μL/well of Steady Glow (Promega) and luminescence was read with TECAN Genios Pro (100 ms/w). Four experiments were carried out for each compound.
Each compound has been tested at 6 different concentrations to depict a dose-effect allowing the measure of biochemical parameters such as EC50 and TOP activation (%).
The mammalian two-hybrid system (M2H) assay consists herein in studying the ability of compounds according to the invention to activate Rev-Erbalpha in cells and thus modulate the interaction with its corepressor. The interaction of the two proteins is assessed with the help of the Luciferase reporter gene. HEK293 cells were transfected with two gene constructions: Gal4-RE VP16-NCoR and Gal4-Rev-Erbalpha or with Gal4-RE, sVP16-NCoR and Gal4-Rev-Erb beta.
The ability of compounds according to the invention of activating Rev-Erbalpha alpha or Rev-Erb beta was assessed in the described cell-based assay. EC50 and TOP activation (%) were measured.

Compound	EC50 [1] [nM]	EC50 [2] [nM]	melting point [°C]	EC50 [3] [nM]
Clc1nnc2ccc(Oc3cccc(-c4ccccc4)c3)nn12 [Cpd.3-1, 6-(biphenyl-3-yloxy)-3-chloro-[1,2,4]triazolo[4,3-b]pyridazine]	100 to 1000	100 to 1000	–	–
CCCCNc1ccc(Oc2ccc3nnc(Cl)n3n2)c(-c2ccccc2)c1 [Cpd.4-58, 3-chloro-6-(5-butylamino-biphenyl-2-yloxy)-[1,2,4]triazolo[4,3-b]pyridazine]	–	100 to 1000	85 to 88	100 to 1000
COc1ccc(-c2ccccc2)c(Oc2ccc3nnc(Cl)n3n2)c1 [Cpd.4-6, 6-(4-methoxy-biphenyl-2-yloxy)-3-chloro-[1,2,4]triazolo[4,3-b]pyridazine]	< 100	100 to 1000	128.1	–
O=C(c1ccccc1)c1ccccc1Oc1ccc2nnc(C(F)(F)F)n2n1 [Cpd.4-8, (2-(3-(trifluoromethyl)-[1,2,4]triazolo[4,3-b]pyridazin-6-yloxy)phenyl)(phenyl)methanone]	100 to 1000	1000 to 6000	112.1	–
Fc1cccc(-c2ccccc2Oc2ccc3nnc(Cl)n3n2)c1 [Cpd.4-3, 6-(3′-fluoro-biphenyl-2-yloxy)-3-chloro-[1,2,4]triazolo[4,3-b]pyridazine]	< 100	100 to 1000	97.3	–
FC(F)(F)c1nnc2ccc(Oc3cccc(-c4ccccc4)c3)nn12 [Cpd.3-3, 6-(biphenyl-3-yloxy)-3-(trifluoromethyl)-[1,2,4]triazolo[4,3-b]pyridazine]	1100 to 6000	100 to 1000	140.2	–
O=C(c1ccccc1)c1cccc(Oc2ccc3nnc(Cl)n3n2)c1 [Cpd.3-2, (3-(3-chloro-[1,2,4]triazolo[4,3-b]pyridazin-6-yloxy)phenyl)(phenyl)methanone]	< 100	100 to 1000	148	–
Fc1ccc(-c2ccccc2)c(Oc2ccc3nnc(Cl)n3n2)c1 [Cpd.4-7, 6-(4-fluoro-biphenyl-2-yloxy)-3-chloro-[1,2,4]triazolo[4,3-b]pyridazine]	< 100	100 to 1000	180.7	–
Clc1nnc2ccc(Oc3ccccc3Cc3ccccc3)nn12 [Cpd.4-4, 6-(2-benzylphenoxy)-3-chloro-[1,2,4]triazolo[4,3-b]pyridazine]	100 to 1000	100 to 1000	113.7	–
O=C(c1ccccc1)c1cccc(Oc2ccc3nnc(C(F)(F)F)n3n2)c1 [Cpd.3-4, (3-(3-(trifluoromethyl)-[1,2,4]triazolo[4,3-b]pyridazin-6-yloxy)phenyl)(phenyl)methanone]	100 to 1000	100 to 1000	94.4	–
Clc1nnc2ccc(Oc3ccccc3-c3ccccc3)nn12 [Cpd.4-1, 6-(biphenyl-2-yloxy)-3-chloro-[1,2,4]triazolo[4,3-b]pyridazine]	1100 to 6000	< 100	163	–
FC(F)(F)c1nnc2ccc(Oc3cccc(Cc4ccccc4)c3)nn12 [Cpd.3-5, 6-(3-benzylphenoxy)-3-(trifluoromethyl)-[1,2,4]triazolo[4,3-b]pyridazine]	100 to 1000	100 to 1000	115	–
FC(F)(F)c1nnc2ccc(Oc3ccccc3Cc3ccccc3)nn12 [Cpd.4-5, 6-(2-benzylphenoxy)-3-(trifluoromethyl)-[1,2,4]triazolo[4,3-b]pyridazine]	100 to 1000	1000 to 6000	128.8	–
O=C(c1ccccc1)c1ccccc1Oc1ccc2nnc(Cl)n2n1 [Cpd.4-11, (2-(3-chloro-[1,2,4]triazolo[4,3-b]pyridazin-6-yloxy)phenyl)(phenyl)methanone]	1100 to 6000	1000 to 6000	137.9	–
FC(F)(F)c1nnc2ccc(Cc3ccccc3-c3ccccc3)nn12 [Cpd.4-12, 6-(biphenyl-2-ylmethyl)-3-(trifluoromethyl)-[1,2,4]triazolo[4,3-b]pyridazine]	1100 to 6000	1000 to 6000	117.4	–
Fc1ccc(-c2ccccc2Oc2ccc3nnc(Cl)n3n2)cc1 [Cpd.4-10, 6-(4′-fluoro-biphenyl-2-yloxy)-3-chloro-[1,2,4]triazolo[4,3-b]pyridazine]	< 100	100 to 1000	144.4	–
CN(C)c1ccc(-c2ccccc2)c(Oc2ccc3nnc(Cl)n3n2)c1 [Cpd.4-45, 3-chloro-6-(4-N,N-dimethylamino-biphenyl-2-yloxy)-[1,2,4]triazolo[4,3-b]pyridazine]	–	< 100	–	100 to 1000
Clc1nnc2ccc(Cc3ccccc3-c3ccccc3)nn12 [Cpd.4-9, 6-(biphenyl-2-ylmethyl)-3-chloro-[1,2,4]triazolo[4,3-b]pyridazine]	100 to 1000	1000 to 6000	–	–
